≈ marks a conversion by molar mass, not a printed value. Where “and” joins values, the source holds several entries; their conditions need not be identical. Equal values may be shown once.
Experiments:
[1] = tested on: Acinetobacter baumannii (ATCC 19606); test: Antimicrobial screening (CO-ADD), growth inhibition at single concentration; assay type: cell-based; details: ATCC19606, at 32 µg/mL concentration, read-out: growth inhibition % Ab (A. baumannii)
Method: (§1) The antimicrobial study was performed by CO-ADD (The Community for Antimicrobial Drug Discovery), funded by the Wellcome Trust (UK) and The University of Queensland (Australia). Evaluation of all synthesized compounds for their antimicrobial activities was done against five pathogenic bacteria, methicillin-resistant Staphylococcus aureus (ATCC 43300) as Gram-positive bacteria, Escherichia coli (ATCC 25922), Klebsiella pneumonia (ATCC 700603), Acinetobacter baumannii (ATCC 19606) and Pseudomonas aeruginosa (ATCC 27853) as Gram-negative bacteria and antifungal activity against two pathogenic fungal strains Candida albicans (ATCC 90028) and Cryptococcus neoformans var. grubii (H99; ATCC 208821) (Table 1).

[2] = tested on: Klebsiella pneumonia (ATCC 700603); test: as above; assay type: cell-based; details: Klebsiella pneumoniae, ATCC700603; at 32 µg/mL concentration; read-out: growth inhibition % Kp (K. pneumoniae)
Method: as §1

[3] = tested on: Pseudomonas aeruginosa (ATCC 27853); test: as above; assay type: cell-based; details: ATCC27853, at 32 µg/mL concentration, read-out: growth inhibition % Pa (P. aeruginosa)
Method: as §1

[4] = tested on: methicillin-resistant Staphylococcus aureus (ATCC 43300); test: as above; assay type: cell-based; details: ATCC 43300 / MRSA, at 32 µg/mL concentration, read-out: growth inhibition % Sa (MRSA)
Method: as §1

[5] = tested on: Candida albicans (ATCC 90028); test: Antifungal screening (CO-ADD), growth inhibition at single concentration; assay type: cell-based; details: ATCC90028, at 32 µg/mL concentration, read-out: growth inhibition % Ca (C. albicans)
Method: as §1

[6] = target: T1, Ovine COX-1 (Ovis aries, UniProt P05979); test: In vitro COX inhibition colorimetric assay; assay type: biochemical
T1 construct: purchased Cayman Chemical, Ann Arbor, MI, USA 760111
T1 sequence (P05979 25-600): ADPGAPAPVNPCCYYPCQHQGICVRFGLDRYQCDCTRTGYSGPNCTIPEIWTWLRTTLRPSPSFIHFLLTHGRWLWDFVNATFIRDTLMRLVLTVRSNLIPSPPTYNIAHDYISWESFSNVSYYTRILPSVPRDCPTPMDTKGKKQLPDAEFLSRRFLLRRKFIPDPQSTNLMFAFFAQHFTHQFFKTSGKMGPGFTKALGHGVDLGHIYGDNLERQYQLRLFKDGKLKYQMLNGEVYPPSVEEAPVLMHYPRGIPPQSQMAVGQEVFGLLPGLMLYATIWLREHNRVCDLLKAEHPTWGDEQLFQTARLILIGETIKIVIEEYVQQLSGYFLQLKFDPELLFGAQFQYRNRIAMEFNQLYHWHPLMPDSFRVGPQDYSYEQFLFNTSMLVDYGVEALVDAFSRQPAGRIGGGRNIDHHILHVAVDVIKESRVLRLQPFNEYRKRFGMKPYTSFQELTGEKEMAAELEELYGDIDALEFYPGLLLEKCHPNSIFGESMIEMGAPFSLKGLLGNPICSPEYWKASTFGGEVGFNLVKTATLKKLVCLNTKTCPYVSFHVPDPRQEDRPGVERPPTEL

[7] = tested on: human recombinant COX-2; test: In vitro COX inhibition colorimetric assay; assay type: biochemical; details: COX-1 IC50/COX-2 IC50
[8] = tested on: carrageenan-induced rat paw edema; test: Carrageenan-induced rat paw edema assay; assay type: in vivo; details: for Edema thickness (mm) ± SEM: n = 4
Method: Pretreatment of rats with compounds 7a–k, 8a–c, and 9a–c before injection with carrageenan in rat paw which induces inflammation and then the percentage of paw edema reduction was measured after certain hours according to previously reported procedures.

[9] = tested on: MRSA; test: Minimal inhibitory concentration measurement; assay type: cell-based; details: Staphylococcus aureus, read-out: MIC Sa (MRSA)
[10] = tested on: E. coli; test: Minimal inhibitory concentration measurement; assay type: cell-based; details: Escherichia coli; read-out: MIC Ec (E. coli)
[11] = tested on: P. aeruginosa; test: Minimal inhibitory concentration measurement; assay type: cell-based; details: Pseudomonas aeruginosa; read-out: MIC Pa (P. aeruginosa)
[12] = tested on: A. baumannii; test: Minimal inhibitory concentration measurement; assay type: cell-based; details: Acinetobacter baumannii; read-out: MIC Ab (A. baumannii)
[13] = tested on: Escherichia coli (ATCC 25922); test: Antimicrobial screening (CO-ADD), growth inhibition at single concentration; assay type: cell-based; details: ATCC25922, at 32 µg/mL concentration, read-out: growth inhibition % Ec (E. coli)
Method: as §1

| SMILES | IC50 [6] | melting point | MIC [9] | MIC [10] | MIC [11] | MIC [12] | inhibition at 32 µg/mL [1] | inhibition at 32 µg/mL [2] | inhibition at 32 µg/mL [3] | inhibition at 32 µg/mL [4] | inhibition at 32 µg/mL [5] | Selectivity index (SI) [7] | Edema inhibition % ([8]; 1 h) | Edema inhibition % ([8]; 3 h) | Edema thickness (mm) ± SEM ([8]; 3 h) | Edema inhibition % ([8]; 6 h) | Edema thickness (mm) ± SEM ([8]; 6 h) | Edema thickness (mm) ± SEM ([8]; 1 h) | inhibition at 32 µg/mL [13] |
| --- | --- | --- | --- | --- | --- | --- | --- | --- | --- | --- | --- | --- | --- | --- | --- | --- | --- | --- | --- |
| CS(=O)(=O)c1ccc(-c2[nH]c3ccc(F)cc3c2C=NO)cc1 [Compound 9b, 5-Fluoro-2-(4-(methylsulfonyl)phenyl)-1H-indole-3-carbaldehyde oxime] | 9.42 µM | 226 to 228 °C |  |  |  |  | 33.3% | 9.23% | 7.9% | 10.3% | 2.47% | 44.85 | 66.2% | 80.5% | 0.700 ± 0.024 mm | 73.4% | 0.726 ± 0.055 mm |  |  |
| CO/N=C(\C(=O)N[C@@H]1C(=O)N2C(C(=O)O)=C(CSc3nc(=O)c(=O)[nH]n3C)CS[C@H]12)c1csc(N)n1 [Ceftriaxone, ceftriaxone, reference compound] |  |  | 32 µg/mL (≈ 57.7 µM) | 0.125 µg/mL (≈ 0.225 µM) | 32 µg/mL (≈ 57.7 µM) | 32 µg/mL (≈ 57.7 µM) |  |  |  |  |  |  |  |  |  |  |  |  |  |
| CS(=O)(=O)c1ccc(-c2[nH]c3ccccc3c2C=NNc2ccc(S(N)(=O)=O)cc2)cc1 [Compound 7c, 4-(2-((2-(4-(Methylsulfonyl)phenyl)-1H-indol-3-yl)methylene)hydrazinyl)benzene sulfonamide] | 11.4 µM | 203 to 204 °C |  |  |  |  | 43.3% | 12.8% | 11.3% | 21.9% | 4.13% | 103.7 and 103.72 | 62.7% | 81.2% | 0.419 ± 0.028 mm | 82.5% | 0.331 ± 0.011 mm | 0.978 ± 0.071 mm | 3.17% |

Continued, in another order:

| IC50 [6] | melting point | MIC [9] | MIC [10] | MIC [11] | MIC [12] | SMILES | inhibition at 32 µg/mL [1] | inhibition at 32 µg/mL [2] | inhibition at 32 µg/mL [3] | inhibition at 32 µg/mL [4] | inhibition at 32 µg/mL [5] | Selectivity index (SI) [7] | Edema inhibition % ([8]; 1 h) | Edema inhibition % ([8]; 3 h) | Edema thickness (mm) ± SEM ([8]; 3 h) | Edema inhibition % ([8]; 6 h) | Edema thickness (mm) ± SEM ([8]; 6 h) | Edema thickness (mm) ± SEM ([8]; 1 h) | inhibition at 32 µg/mL [13] |
| --- | --- | --- | --- | --- | --- | --- | --- | --- | --- | --- | --- | --- | --- | --- | --- | --- | --- | --- | --- |
| 12.4 µM | 228 to 230 °C |  |  |  |  | CS(=O)(=O)c1ccc(NN=Cc2c(-c3ccc(S(C)(=O)=O)cc3)[nH]c3ccccc23)cc1 [Compound 7b, 2-(4-(Methylsulfonyl)phenyl)-3-((2-(4-(methylsulfonyl)phenyl)hydrazono)methyl)-1H-indole] | 35.5% |  | 3.8% | 25.6% | 9.55% | 124.10 | 76.1% | 91.2% | 0.196 ± 0.017 mm | 93.5% | 0.123 ± 0.009 mm | 0.627 ± 0.045 mm |  |
| 12.4 µM | 187 to 188 °C |  |  |  |  | CS(=O)(=O)c1ccc(N/N=C/c2c(-c3ccc(S(C)(=O)=O)cc3)[nH]c3ccc(F)cc23)cc1 [Compound 7h, 5-Fluoro-2-(4-(methylsulfonyl)phenyl)-3-((2-(4-(methylsulfonyl)phenyl) hydraz-ono)methyl)-1H-indole] | 51.8% | 23.6% | 7.97% | 30.3% | 25.3% | 112.7 and 112.72 | 75.4% | 89.4% | 0.236 ± 0.008 mm | 92.7% | 0.138 ± 0.006 mm | 0.645 ± 0.058 mm |  |

— article PMC7106896, “Synthesis and biological evaluation of 2-(4-methylsulfonyl phenyl) indole derivatives: multi-target compounds with dual antimicrobial and anti-inflammatory activities” (BMC Chemistry, 2020)
